# Reference: US20260317314A1, “NITROGEN-CONTAINING HETEROCYCLIC COMPOUND AND USE THEREOF” (JIANGSU DEYUAN PHARMACEUTICAL CO.,LTD., priority 2023, published 2026)
# What was measured:
# [1] = In vivo pharmacokinetics study in rats; set-up: species or system SD rat; details: male SD rats, oral 2 mg/kg; for AUC(0-t) at 24 h: read-out: AUC0-24 h
# [2] = Permeability test in MDR1-MDCKII monolayer cell model; type: in vitro ADME; details: dog; for efflux ratio at 2.5 h, 2 µM: MDCK-MDR1, pH 7.4, ER=Papp(BA)/Papp(AB); for Papp A→B at 2.5 h, 2 µM: MDCK-MDR1, pH 7.4, pH 7.40, 2.5 hours, 37±1° C., read-out: Apparent permeability coefficient (Papp (AB))
# Method: Experimental objective: The permeability and efflux ratio of the compound of the present disclosure were determined using the MDR1-MDCKII monolayer cell model to assess its membrane permeability and potential for P-gp-mediated efflux transport.
# Experimental protocol: MDR1-MDCKII cells (obtained from the Netherlands Cancer Institute) were seeded in 96-well plates (obtained from Corning) at a cell density of 3.33×10^5 cells/mL and cultured for 4 to 7 days to form confluent cell monolayers. Hank's balanced salt solution containing 10 mM HEPES (pH 7.40) was used as the transport buffer. The test compound was evaluated for bidirectional transport at a concentration of 2 μM, with the DMSO concentration in the incubation system maintained below 1%. After adding the samples, the cell plate was incubated at 37±1° C., 5% CO2, and saturated humidity for 2.5 hours. All samples were quantitatively analyzed using the LC-MS/MS method. The apparent permeability coefficient (Papp, cm/s) and efflux ratio (ER) were calculated using the following formula. Apparent permeability coefficient (Papp, cm/s) was calculated using the following formula: Papp=(dCr/dt)×Vr/(A×C0). Herein, dCr/dt represents the cumulative concentration of the compound at the receiving end per unit time (μM/s); Vr is the volume of the solution at the receiving end (with solution volumes at the apical and basolateral ends being 0.075 mL and 0.250 mL, respectively); A is the relative surface area of the cell monolayer (0.143 cm^2); C0 is the initial concentration of the test substance at the dosing end (μM) or the peak area ratio of the reference substance. The efflux ratio was calculated using the following formula: ER=Papp(BA)/Papp(AB).
# [3] = Plasma protein binding rate test, SD rat (equilibrium dialysis); type: in vitro ADME; details: 37° C., read-out: Plasma protein binding rate (%) in SD rats (converted)
# Description: (§1) The sample was thoroughly mixed.
# [4] = In vivo pharmacokinetic study in cynomolgus monkeys; set-up: species or system cynomolgus monkey; details: male cynomolgus monkeys
# [5] = Plasma protein binding rate test, human (equilibrium dialysis); type: in vitro ADME; details: 37° C.
# Description: as §1
# [6] = Plasma protein binding rate test, cynomolgus monkey (equilibrium dialysis); type: in vitro ADME; details: 37° C., read-out: Plasma protein binding rate (%) in cynomolgus monkeys (converted)
# Description: as §1
# [7] = In vitro liver microsome metabolic stability study; type: in vitro ADME; details: human liver microsomes 0.5 mg/mL, compound 1 μM, 37° C., up to 60 minutes; read-out: Intrinsic hepatic clearance CLint(liver)
# Method: Stock solution: 10 mM in DMSO.
# Only 54 μL of microsomal working solution, 6 μL of NADPH regeneration system working solution, and 180 μL of stop solution were added to the blank plate.
# LC-MS/MS analysis was performed.
# plasma protein [8] = experiment: Plasma protein binding rate test, human (equilibrium dialysis); type: in vitro ADME; details: 37° C., 4 hours
# Description: as §1
# plasma protein [9] = experiment: Plasma protein binding rate test, cynomolgus monkey (equilibrium dialysis); type: in vitro ADME; details: 37° C., 4 hours
# Description: as §1
# human CYP11B2 = molecular target: T1, human CYP11B2 (Homo sapiens, UniProt P19099); experiment: In vitro activity assay of monoclonal cells overexpressing human CYP11B2; type: cell-based; details: G402 cells overexpressing human CYP11B2; substrate 11-deoxycorticosterone; 16 hours; aldosterone by LCMS/MS
# T1 construct: expressed in transfected cells; host or cells: human renal leiomyoma G402 cell line (monoclonal cells overexpressing human CYP11B2)
# T1 sequence (P19099 25-503): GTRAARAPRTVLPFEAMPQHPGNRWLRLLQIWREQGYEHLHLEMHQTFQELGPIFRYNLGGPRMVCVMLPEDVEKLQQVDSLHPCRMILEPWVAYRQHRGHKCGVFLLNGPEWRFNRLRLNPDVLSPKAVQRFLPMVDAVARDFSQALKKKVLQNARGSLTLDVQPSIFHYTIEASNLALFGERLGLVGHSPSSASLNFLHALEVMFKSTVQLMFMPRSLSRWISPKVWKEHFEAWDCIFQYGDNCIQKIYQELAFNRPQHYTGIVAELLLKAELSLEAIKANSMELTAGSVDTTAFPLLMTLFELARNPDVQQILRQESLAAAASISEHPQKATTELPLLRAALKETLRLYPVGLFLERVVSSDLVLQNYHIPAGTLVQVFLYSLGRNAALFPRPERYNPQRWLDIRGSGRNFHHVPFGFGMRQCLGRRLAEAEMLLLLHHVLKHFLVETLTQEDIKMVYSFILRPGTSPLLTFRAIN
# Method: The human renal leiomyoma G402 cell line overexpressing human CYP11B2 was selected to serve as a compound activity screening system.
# • 2) Compound details: The test compound was prepared as a 10 μM working concentration using DMSO.
# Day 1: Cells were digested, and human renal leiomyoma G402 cells overexpressing human CYP11B2 were resuspended to 1×10^5 cells/mL, with 100 μL seeded into a 96-well plate.
# Day 2: The medium was replaced with DMEM/F12 containing 2.5% charcoal-stripped fetal bovine serum; test compounds were added: 5 μL of test compound was added to the cell culture medium to achieve final concentrations of 10000, 2500, 625, 156.25, 39.06, 9.77, 2.44, 0.61, 0.15, and 0 nM (with a DMSO content of 0.1%).
# After one hour, the substrate was added: 30 mM 11-deoxycorticosterone was diluted 1500-fold with culture medium, and 5 μL was dispensed per well to achieve a final concentration of […], followed by incubation for 16 hours.
# Day 3: The cell supernatant was collected and added to 200 μL of a methanol solution containing internal standards (internal standards: 35 ng/mL ketoprofen or 7.5 ng/mL carbamazepine or 5 ng/mL diphenhydramine or 10 ng/mL tolbutamide). The mixture was vortexed and centrifuged (4000×g, 4° C., 5 minutes). Then, 100 μL of the supernatant was taken and mixed with 100 μL of pure water. The mixture was centrifuged (4000 g, 4° C., 15 min), and the supernatant was analyzed by ESI-LCMS/MS. • 4) Data analysis:
# Ratio=Aldosterone peak area/Internal standard peak area
# Control activity %=(Ratio test compound/Ratio DMSO)×100%
# “Ratio test compound” represents the Ratio values at different concentrations of the test compound.
# “Ratio DMSO” represents the Ratio value without the addition of the test compound. • X=Log (compound concentration) • Y=Control activity %
# The IC50 of the test compound was determined by fitting to a nonlinear regression equation using XLfit 5.5.0.
# [10] = test system: patients with refractory hypertension; details: cited from earlier work
# [11] = cynomolgus monkey, plasma, oral 3 mg/kg
# [12] = 2 mg dose, patients with refractory hypertension
compound,measurement,setting,value
"CCC(=O)N[C@@H]1CCCc2c(-c3ccc4c(ccc(=O)n4C)c3)cncc21 (single isomer, unassigned) [Compound 001]",bioavailability,"[1]; rat, plasma",80%
same,half-life,"[1]; rat, plasma",4.61 h
same,Cmax,"[1]; rat, plasma",7.63 µM
same,AUC(0-t) at 24 h,"[1]; rat, plasma",59.1 µM·h
same,"efflux ratio at 2.5 h, 2 µM",[2],1.76
same,"Papp A→B at 2.5 h, 2 µM",[2],17.2 ×10⁻⁶ cm/s
same,fraction unbound at 4 h,[3],0.079
same,bioavailability,[4]; [11],120%
same,half-life,[4]; [11],4.99 h
same,Cmax,"[4]; cynomolgus monkey, oral 3 mg/kg, plasma",4 µM
same,AUC(0-t) at 24 h,"[4]; cynomolgus monkey, oral 3 mg/kg, plasma, read-out: AUC0-24 h",23.2 µM·h
same,fraction unbound at 4 h,[5],0.239
same,fraction unbound at 4 h,[6],0.254
same,CLint scaled at 1 µM,[7],< 8.6 mL/min/kg
"CCC(=NOC)NC1CCCc2c(-c3ccc4c(c3)CCC(=O)N4C)cncc21 (single isomer, unassigned) [Compound 005]",bioavailability,"[1]; rat, plasma",111%
same,half-life,"[1]; rat, plasma",2.77 h
same,Cmax,"[1]; rat, plasma",1.31 µM
same,AUC(0-t) at 24 h,"[1]; rat, plasma",7.8 µM·h
same,"efflux ratio at 2.5 h, 2 µM",[2],0.7
same,"Papp A→B at 2.5 h, 2 µM",[2],23.1 ×10⁻⁶ cm/s
same,fraction unbound at 4 h,[3],0.102
same,fraction unbound at 4 h,[5],0.106
same,fraction unbound at 4 h,[6],0.127
"Cc1noc(C)c1C(=O)N[C@@H]1CCCc2c(-c3cc4ccc(=O)n(C)c4cc3F)cncc21 (single isomer, unassigned) [Compound 020]",Human plasma protein binding rate (%),plasma protein [8],85.6%
same,Plasma protein binding rate (%) in cynomolgus monkeys,plasma protein [9],90.3%
"CCC(=O)NC1CCCc2c(-c3cc4ccc(=O)n(C)c4s3)cncc21 (single isomer, unassigned) [Compound 023]",F,[1],109%
same,T1/2,[1],3.6 h
same,AUC0-24 h,[1]; plasma,44.234 µM·h
same,Cmax,[1]; plasma,6.92 µM
same,F,[4]; oral 1 mg/kg,76.5%
same,T1/2,[4]; oral 1 mg/kg,4.80 h
same,AUC0-24 h,"[4]; oral 1 mg/kg, plasma",8.916 µM·h
same,Cmax,"[4]; oral 1 mg/kg, plasma",1.32 µM
same,Human plasma protein binding rate (%),plasma protein [8],69.6%
same,Plasma protein binding rate (%) in cynomolgus monkeys,plasma protein [9],69.0%
"CCC(=O)N[C@@H]1CCCc2c(-c3ccc4c(c3)c(C)cc(=O)n4C)cncc21 (single isomer, unassigned) [Compound 027]",IC50,human CYP11B2,0.0627 µM
"CCC(=O)NC1CCCc2c(-c3cc(F)c4c(c3)OCC(=O)N4C)cncc21 (single isomer, unassigned) [Compound 031]","efflux ratio at 2.5 h, 2 µM",[2],0.89
same,"Papp A→B at 2.5 h, 2 µM",[2],20 ×10⁻⁶ cm/s
same,fraction unbound at 4 h,[5],0.193
same,fraction unbound at 4 h,[6],0.203
same,CLint scaled at 1 µM,[7],< 8.6 mL/min/kg
"CCC(=O)NC1CCCc2c(-c3cc4c(cc3F)N(C)C(=O)CO4)cncc21 (single isomer, unassigned) [Compound 032]","efflux ratio at 2.5 h, 2 µM",[2],0.86
same,"Papp A→B at 2.5 h, 2 µM",[2],22.6 ×10⁻⁶ cm/s
same,fraction unbound at 4 h,[5],0.151
same,fraction unbound at 4 h,[6],0.205
same,CLint scaled at 1 µM,[7],< 8.6 mL/min/kg
"CCC(=O)NC1CCOc2c(-c3cc4ccc(=O)n(C)c4s3)cncc21 (single isomer, unassigned) [Compound 045]","efflux ratio at 2.5 h, 2 µM",[2],1.3
same,"Papp A→B at 2.5 h, 2 µM",[2],16.7 ×10⁻⁶ cm/s
same,fraction unbound at 4 h,[5],0.239
same,fraction unbound at 4 h,[6],0.32
CCC(=O)N[C@@H]1CCCc2c(-c3ccc4c(c3)CCC(=O)N4C)cncc21 [Baxdrostat],office systolic and diastolic blood pressure,[10]; [12],efficacy in reducing office systolic and diastolic blood pressure
same,safety and tolerability,[10]; [12],favorable safety and tolerability profiles
same,aldosterone secretion levels,[10]; clinical studies,dose-dependent reduction
same,blood pressure,[10]; clinical studies,dose-dependent reduction
same,blood pressure reduction,[10]; phase 2 trials,significant blood pressure reduction
same,cortisol levels,[10]; phase 2 trials,no impact on cortisol levels
same,elevated blood potassium,[10]; phase 2 trials,rare occurrence of elevated blood potassium
same,steroid precursor accumulation,[10]; phase 2 trials,absence of steroid precursor accumulation
